The NIST ThermoML archive (doi:10.1021/je060475r)
Numbers after ± are expanded uncertainties.

Test: xn = mol fraction of the nth substance listed
Settings: 101 kPa, Liquid

O=CN1CCOCC1 [N-formylmorpholine] + Cc1ccccc1
Settings	mass density [kg/m3]	viscosity [mPa·s]
298.15 K, x2 = 0	1146.06 ± 1.5	7.955 ± 0.31
298.15 K, x2 = 0.0997	1118.85 ± 1.3	6.045 ± 0.25
298.15 K, x2 = 0.1857	1095.98 ± 1.1	4.343 ± 0.19
298.15 K, x2 = 0.2987	1064.62 ± 0.94	3.106 ± 0.14
298.15 K, x2 = 0.3979	1036.62 ± 0.76	2.334 ± 0.11
298.15 K, x2 = 0.4996	1007.87 ± 0.57	1.769 ± 0.082
298.15 K, x2 = 0.5993	979.41 ± 0.65	1.376 ± 0.065
298.15 K, x2 = 0.701	949.94 ± 0.83	1.064 ± 0.052
298.15 K, x2 = 0.8004	920.72 ± 1	0.846 ± 0.043
298.15 K, x2 = 0.9	891.62 ± 1.2	0.681 ± 0.036
303.15 K, x2 = 0	1141.7 ± 1.4	6.877 ± 0.28
303.15 K, x2 = 0.0997	1114.45 ± 1.3	5.223 ± 0.22
303.15 K, x2 = 0.1857	1091.57 ± 1.1	3.824 ± 0.17
303.15 K, x2 = 0.2987	1060.17 ± 0.91	2.771 ± 0.12
303.15 K, x2 = 0.3979	1032.11 ± 0.73	2.116 ± 0.097
303.15 K, x2 = 0.4996	1003.25 ± 0.54	1.614 ± 0.076
303.15 K, x2 = 0.5993	974.76 ± 0.68	1.261 ± 0.061
303.15 K, x2 = 0.701	945.23 ± 0.86	0.994 ± 0.049
303.15 K, x2 = 0.8004	916.11 ± 1	0.79 ± 0.04
303.15 K, x2 = 0.9	887 ± 1.2	0.636 ± 0.034
313.15 K, x2 = 0	1132.96 ± 1.4	5.214 ± 0.22
313.15 K, x2 = 0.0997	1105.62 ± 1.2	4.037 ± 0.18
313.15 K, x2 = 0.1857	1082.68 ± 1.1	3.035 ± 0.14
313.15 K, x2 = 0.2987	1051.22 ± 0.85	2.248 ± 0.1
313.15 K, x2 = 0.3979	1022.87 ± 0.67	1.754 ± 0.082
313.15 K, x2 = 0.4996	993.89 ± 0.56	1.323 ± 0.063
313.15 K, x2 = 0.5993	965.36 ± 0.73	1.076 ± 0.053
313.15 K, x2 = 0.701	935.9 ± 0.91	0.854 ± 0.043
313.15 K, x2 = 0.8004	906.8 ± 1.1	0.69 ± 0.036
313.15 K, x2 = 0.9	877.53 ± 1.3	0.569 ± 0.031
323.15 K, x2 = 0	1124.33 ± 1.3	4.08 ± 0.18
323.15 K, x2 = 0.0997	1096.88 ± 1.2	3.219 ± 0.14
323.15 K, x2 = 0.1857	1073.89 ± 1	2.475 ± 0.11
323.15 K, x2 = 0.2987	1042.33 ± 0.8	1.864 ± 0.086
323.15 K, x2 = 0.3979	1013.75 ± 0.61	1.471 ± 0.07
323.15 K, x2 = 0.4996	984.5 ± 0.62	1.13 ± 0.055
323.15 K, x2 = 0.5993	955.91 ± 0.79	0.929 ± 0.046
323.15 K, x2 = 0.701	926.58 ± 0.97	0.747 ± 0.038
323.15 K, x2 = 0.8004	897.51 ± 1.1	0.613 ± 0.033
323.15 K, x2 = 0.9	868.21 ± 1.3	0.508 ± 0.028
333.15 K, x2 = 0	1115.63 ± 1.3	3.284 ± 0.15
333.15 K, x2 = 0.0997	1088.08 ± 1.1	2.622 ± 0.12
333.15 K, x2 = 0.1857	1065 ± 0.95	2.057 ± 0.094
333.15 K, x2 = 0.2987	1033.38 ± 0.74	1.576 ± 0.074
333.15 K, x2 = 0.3979	1004.52 ± 0.56	1.259 ± 0.06
333.15 K, x2 = 0.4996	975.06 ± 0.68	0.979 ± 0.048
333.15 K, x2 = 0.5993	946.52 ± 0.85	0.813 ± 0.041
333.15 K, x2 = 0.701	917.23 ± 1	0.66 ± 0.035
333.15 K, x2 = 0.8004	888.11 ± 1.2	0.544 ± 0.03
333.15 K, x2 = 0.9	858.77 ± 1.4	0.453 ± 0.026
343.15 K, x2 = 0	1107.96 ± 1.2	2.707 ± 0.12
343.15 K, x2 = 0.0997	1080.32 ± 1.1	2.189 ± 0.1
343.15 K, x2 = 0.1857	1057.15 ± 0.9	1.748 ± 0.081
343.15 K, x2 = 0.2987	1025.32 ± 0.69	1.353 ± 0.064
343.15 K, x2 = 0.3979	996.41 ± 0.55	1.096 ± 0.053
343.15 K, x2 = 0.4996	966.84 ± 0.73	0.888 ± 0.045
343.15 K, x2 = 0.5993	938.07 ± 0.9	0.72 ± 0.037
343.15 K, x2 = 0.701	908.7 ± 1.1	0.59 ± 0.032
343.15 K, x2 = 0.8004	879.44 ± 1.3	0.49 ± 0.027
343.15 K, x2 = 0.9	850.05 ± 1.4	0.412 ± 0.024
353.15 K, x2 = 0	1098.76 ± 1.2	2.274 ± 0.1
353.15 K, x2 = 0.0997	1070.98 ± 0.99	1.804 ± 0.084
353.15 K, x2 = 0.1857	1047.73 ± 0.84	1.505 ± 0.071
353.15 K, x2 = 0.2987	1015.94 ± 0.64	1.179 ± 0.057
353.15 K, x2 = 0.3979	986.63 ± 0.61	0.96 ± 0.048
353.15 K, x2 = 0.4996	957.13 ± 0.79	0.791 ± 0.04
353.15 K, x2 = 0.5993	928.16 ± 0.97	0.644 ± 0.034
353.15 K, x2 = 0.701	898.81 ± 1.1	0.531 ± 0.029
353.15 K, x2 = 0.8004	869.48 ± 1.3	0.444 ± 0.025
353.15 K, x2 = 0.9	839.94 ± 1.5	0.377 ± 0.023
